Results published in US20110124572A1, “SYNDECAN-4 IS A REGULATOR OF RAC1-GTP” (priority 2008, published 2011).
“And” between values parts separate entries of the source, which are not always exact repeats. Equal values may be shown once.

What was measured:
Format in all cases: cell-based, human
MCF-7 cells = assay: Cell migration assay (time-lapse) on fibronectin; settings: nt-MCF-7 (non-transfected) cells, PMA stimulation, solitary cell migration
Experimental: The MCF-7 breast adenocarcinoma cells were obtained from ATCC, cultured in DMEM:F12 (Cambrex, Walkersville, Md., USA) supplemented with 10% fetal bovine serum (FBS) (Gibco, Bethesda, Md., USA), otherwise stated. The stably transfected cell lines were propagated in DMEM:F12 medium supplemented with 10% FBS and 200 μg/ml G418 (Cambrex, Walkersville, Md., USA). The cell lines were seeded onto glass coverslips or plastic dishes coated for 2 h with 10 μg/ml fibronectin (Sigma-Aldrich, St. Louis, Mo., USA). Scratch-wound assays were performed on stable transfected Syndecan-4 wild, Ser179Ala and Ser179Glu cells at 80% confluency. The cultures were scratched with a sterile P10 pipette tip 3-4 times in parallel lines. Images were taken 12, 24, 36 and 48 h following wounding.
In the cell migration assay 60% confluent MCF7 cells or the stably transfected lines were stimulated by 1 μM phorbol-12-myristate-13-acetate (PMA; from Sigma-Aldrich St. Louis, Mo., USA), otherwise stated. The images were taken using 10×, 20×0.3 objective at 3-min intervals for 2 h using inverted microscope (Leica) and organized into time-lapse movies in Adobe ImageReady® v. 8.
Results of the previous scratch-wound assay gave a hint that the Ser179Glu cells gained a migratory phenotype. […]

MCF7 cells = assay: Neuronal differentiation under serum starvation; settings: 4-5 weeks, bIII-tubulin marker
Experimental: FIG. 8. Neuronal differentiation induced by short Syndecan-4 peptides. MCF7 cells were transfected with wild type syndecan-4 (A) and DEGEpC3 (B), respectively. […] Red: b3-tubulin staining. Blue: Hoechst nuclear staining (A). DEGEpC3: […] was joined to GFP.
Short peptides with the sequence […] (SEQ.ID.NO.: 3) and […] (SEQ.ID.NO.: 4) were tested under serum starvation.

Rac1 = Rac1 GTPase pulldown assay (Rac1-GTP level); settings: wt-, Ser179Ala and Ser179Glu syndecan-4 cell lines, Gö6976
Experimental: Rac1 activity was characterised by applying RAC-activation kit purchased from Millipore (Upstate) and it was used according to the manufacturer's prescription. Briefly, p21-binding domain of PAK-1 was fused to agarose beads, which specifically binds to and precipitates Rac-GTP and Cdc42-GTP from cell lysates. Cells were harvested at 70% confluency of 25 ml flasks. The wild type Syndecan-4, Ser179Ala and Ser179Glu cells were treated for 60 minutes with 1 μM PMA (Sigma-Aldrich), or 500 nM rottlerin (Sigma-Aldrich), or 10 nM Gö6976 (Biosource, Camarillo, Calif., USA). The active Rac1 was detected by Western blotting using mouse anti-Rac1 antibody (Upstate). To test whether GST-Pak1-Rac/Cdc42-binding domain could pull syndecan-4 down, the blot was probed with rabbit polyclonal anti-syndecan-4 or mouse monoclonal anti-GFP antibody.

| Compound | neuronal differentiation phenotype (MCF7 cells) | other results |
| --- | --- | --- |
| CCCCCCCCCCCCCC(=O)O[C@@H]1[C@@H](C)[C@@]2(O)[C@@H](C=C(CO)C[C@]3(O)C(=O)C(C)=C[C@@H]23)[C@@H]2C(C)(C)[C@]12OC(C)=O [PMA, phorbol-12-myristate-13-acetate, reference compound] | – | migration velocity (MCF-7 cells): 0.3±0.1 μm/min and 0.3 μm/min |
| MYRMKKKDEGEYDL [DEGEpC3] | neuron-like phenotype | – |
| RMKKKDEGEYDLG (Syndecan-4 sequence) [SEQ.ID.NO.: 3] | neuron-like phenotypes | – |
| Cn1c2ccccc2c2c3c(c4c5ccccc5n(CCC#N)c4c21)C(=O)NC3 [Gö6976, reference compound] | – | activated Rac1 level (Rac1): reduced |
| RMKKKDEGDYDLG (Syndecan-4 sequence) [SEQ.ID.NO.: 4] | neuron-like phenotypes | – |
